The values below come from patent US9751890B2, “Heteroaryl derivatives as CFTR modulators” (Vertex Pharmaceuticals Incorporated, priority 2008, dated 2017).

The structures appear in SMILES notation.

The experiment deals with T1, ΔF508-CFTR (Homo sapiens, UniProt P13569, DEL508-508).
T1 construct: expressed in transfected cells
T1 sequence (P13569 with tags, fused parts or gaps DEL508-508): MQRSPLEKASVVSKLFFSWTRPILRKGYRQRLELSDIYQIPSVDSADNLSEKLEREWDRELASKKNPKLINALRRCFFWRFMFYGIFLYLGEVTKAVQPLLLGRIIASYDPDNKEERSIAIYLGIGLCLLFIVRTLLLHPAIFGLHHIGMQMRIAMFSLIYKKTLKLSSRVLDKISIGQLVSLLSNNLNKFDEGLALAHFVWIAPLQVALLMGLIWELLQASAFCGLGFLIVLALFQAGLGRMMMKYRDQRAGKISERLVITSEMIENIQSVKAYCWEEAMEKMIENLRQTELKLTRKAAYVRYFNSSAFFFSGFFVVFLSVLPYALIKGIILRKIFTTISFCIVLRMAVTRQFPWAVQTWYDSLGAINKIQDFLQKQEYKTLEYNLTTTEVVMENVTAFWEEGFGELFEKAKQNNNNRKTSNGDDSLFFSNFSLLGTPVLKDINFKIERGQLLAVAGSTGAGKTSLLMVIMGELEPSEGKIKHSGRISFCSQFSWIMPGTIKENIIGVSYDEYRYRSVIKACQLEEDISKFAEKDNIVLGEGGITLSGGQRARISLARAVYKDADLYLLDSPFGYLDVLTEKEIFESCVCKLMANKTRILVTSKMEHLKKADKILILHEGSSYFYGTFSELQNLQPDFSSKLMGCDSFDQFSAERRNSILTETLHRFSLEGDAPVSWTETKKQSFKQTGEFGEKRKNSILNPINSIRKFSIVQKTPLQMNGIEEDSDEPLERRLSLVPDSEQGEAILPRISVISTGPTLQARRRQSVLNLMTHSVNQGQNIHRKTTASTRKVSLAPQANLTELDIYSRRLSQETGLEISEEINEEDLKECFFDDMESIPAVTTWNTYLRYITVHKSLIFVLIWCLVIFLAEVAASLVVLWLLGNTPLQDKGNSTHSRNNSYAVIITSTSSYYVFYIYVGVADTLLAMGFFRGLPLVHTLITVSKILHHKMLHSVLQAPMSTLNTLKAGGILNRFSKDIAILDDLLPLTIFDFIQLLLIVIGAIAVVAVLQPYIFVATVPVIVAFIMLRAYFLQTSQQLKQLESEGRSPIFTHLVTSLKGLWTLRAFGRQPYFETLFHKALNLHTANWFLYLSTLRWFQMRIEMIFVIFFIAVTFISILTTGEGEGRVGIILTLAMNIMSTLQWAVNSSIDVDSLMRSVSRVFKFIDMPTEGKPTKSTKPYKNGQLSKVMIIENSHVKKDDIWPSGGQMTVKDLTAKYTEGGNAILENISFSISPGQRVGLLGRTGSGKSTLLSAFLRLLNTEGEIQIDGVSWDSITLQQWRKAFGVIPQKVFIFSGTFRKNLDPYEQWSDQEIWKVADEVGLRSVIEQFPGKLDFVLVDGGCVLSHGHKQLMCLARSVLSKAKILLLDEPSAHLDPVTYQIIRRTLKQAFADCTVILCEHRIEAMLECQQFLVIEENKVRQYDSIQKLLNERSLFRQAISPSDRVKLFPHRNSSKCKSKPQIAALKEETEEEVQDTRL
In words: Membrane potential optical assay for ΔF508-CFTR correction (single-addition HTS format). It counts as cell-based. The settings on record: NIH3T3 mouse fibroblasts stably expressing ΔF508-CFTR; 16-24 hrs with compound; activation with 10 μM forskolin and 20 μM genistein; read-out: BinnedMaxEfficacy (PercentActivity). The text has this: Membrane potential optical methods for assaying ΔF508-CFTR modulation properties of compounds.
The assay utilizes fluorescent voltage sensing dyes to measure changes in membrane potential using a fluorescent plate reader (e.g., FLIPR III, Molecular Devices, Inc.) as a readout for increase in functional ΔF508-CFTR in NIH 3T3 cells. The driving force for the response is the creation of a chloride ion gradient in conjunction with channel activation by a single liquid addition step after the cells have previously been treated with compounds and subsequently loaded with a voltage sensing dye.
To identify small molecules that correct the trafficking defect associated with ΔF508-CFTR; a single-addition HTS assay format was developed. Assay Plates containing cells are incubated for ˜2-4 hours in tissue culture incubator at 37° C., 5% CO2, 90% humidity. Cells are then ready for compound exposure after adhering to the bottom of the assay plates.
The cells were incubated in serum-free medium for 16-24 hrs in tissue culture incubator at 37° C., 5% CO2, 90% humidity in the presence or absence (negative control) of test compound. The cells were subsequently rinsed 3× with Krebs Ringers solution and loaded with a voltage sensing redistribution dye. To activate ΔF508-CFTR, 10 μM forskolin and the CFTR potentiator, genistein (20 μM), were added along with Cl^−-free medium to each well. The addition of Cl^−-free medium promoted Cl^− efflux in response to ΔF508-CFTR activation and the resulting membrane depolarization was optically monitored using voltage sensor dyes.
Bath Solution #1: (in mM) NaCl 160, KCl 4.5, CaCl2 2, MgCl2 1, HEPES 10, pH 7.4 with NaOH.
Chloride-free bath solution: Chloride salts in Bath Solution #1 are substituted with gluconate salts.
NIH3T3 mouse fibroblasts stably expressing ΔF508-CFTR are used for optical measurements of membrane potential. The cells are maintained at 37° C. in 5% CO2 and 90% humidity in Dulbecco's modified Eagle's medium supplemented with 2 mM glutamine, 10% fetal bovine serum, 1×NEAA, β-ME, 1× pen/strep, and 25 mM HEPES in 175 cm^2 culture flasks. For all optical assays, the cells were seeded at ˜20,000/well in 384-well matrigel-coated plates and cultured for 2 hrs at 37° C. before culturing at 27° C. for 24 hrs. for the potentiator assay. For the correction assays, the cells are cultured at 27° C. or 37° C. with and without compounds for 16-24 hours.
As to `Cc1ncc(NC(=O)C2(c3ccc4c(c3)OCO4)CC2)cc1-c1cccc(C(=O)O)c1` [Compound 38, 3-(5-(1-(benzo[d][1,3]dioxol-5-yl)cyclopropanecarboxamido)-2-methylpyridin-3-yl)benzoic acid], the Emax lay within 25 to 100%. With `Cc1ncc(NC(=O)C2(c3ccc4c(c3)OCO4)CC2)cc1-c1ccc(C(N)=O)cc1` [Compound 39], the Emax was in the range of 25 to 100%. Next, `Cc1ncc(NC(=O)C2(c3ccc4c(c3)OCO4)CC2)cc1-c1cccc(CO)c1` [Compound 40]: above 100%.

Take `O=C(N(c1ccnc(C(F)(F)F)c1)c1ccccn1)C1(c2ccc3c(c2)OCO3)CC1` [Compound 41, 1-(benzo[d][1,3]dioxol-5-yl)-N-(pyridin-2-yl)-N-(2-(trifluoromethyl)pyridin-4-yl)cyclopropanecarboxamide]: the Emax was in the range of 25 to 100%. The figure for `Cc1ncc(NC(=O)C2(c3ccc4c(c3)OCO4)CC2)cc1-c1ccccc1` [Compound 42, 1-(benzo[d][1,3]dioxol-5-yl)-N-(6-methyl-5-phenylpyridin-3-yl)cyclopropanecarboxamide] is above 100%; for `COc1ccccc1Nc1ccc(NC(=O)C2(c3ccc4c(c3)OCO4)CC2)cn1` [Compound 43, 1-(benzo[d][1,3]dioxol-5-yl)-N-(6-(2-methoxyphenylamino)pyridin-3-yl)cyclopropanecarboxamide] it is above 100%. The figure for `O=C(Nc1ccc(Cc2ccccc2)nn1)C1(c2ccc3c(c2)OCO3)CC1` [Compound 44] is 25 to 100%; for `Cc1cnc(NC(=O)C2(c3ccc4c(c3)OC(F)(F)O4)CC2)nc1-c1cccc(C(=O)O)c1` [Compound 45, 3-(2-(1-(2,2-difluorobenzo[d][1,3]dioxol-5-yl)cyclopropanecarboxamido)-5-methylpyrimidin-4-yl)benzoic acid] it is 25 to 100%. `O=C(Nc1ccc(Cc2ccccc2Cl)nn1)C1(c2ccc3c(c2)OCO3)CC1` [Compound 46]: the Emax is 25 to 100%. The figure for `COc1ccccc1Cc1cc(NC(=O)C2(c3ccc4c(c3)OCO4)CC2)ccn1` [Compound 47] is above 100%.
